System: tail skin of SKH2 mice
Experiment: Propigmenting activity by topical application on the tail of SKH2 mice (clinical pigmentation score, luminance by colorimeter)
Type: in vivo
Conditions: 5 days per week for 57 days, 0.01% travoprost, MC1R agonist A at 7%, B at 8%, compared with carrier group (combinations also with 0.01% travoprost alone)
From the text: In mice, melanocytes are not present in the epidermis of the areas covered with hair and are mainly present in the hair follicles. The tail skin of SKH2 mice is pigmented, which is of particular interest for evaluating the effect of topical agents on skin pigmentation. The pigmentation modifications induced by these topical compounds can be quantified by various means, for instance the clinical score of the pigmentation and the measurement of the tail color using a colorimeter. The evaluation of the propigmenting activity of 0.01% travoprost alone or in combination with MC1R receptor agonists: compound A at 7% or compound B at 8%, is carried out by topical application on the tail of SKH2 mice for 57 days. The treatment is carried out 5 days per week for 57 days. 20 μl of the test product diluted in the carrier 145 are applied to the tail. In the case of the combinations, 20 μl of the MC1R agonist solution are applied after the treatment with 20 μl of the 0.01% travoprost solution. The clinical score of the animals is recorded once a week before irradiation; the pigmentation is evaluated by virtue of a score on a scale of 0 to 4. […]

Question: Which “clinical score for pigmentation (natural pigmentation of the tail skin)” value does the source give for `CC(C)OC(=O)CCC/C=C\C[C@@H]1[C@@H](/C=C/[C@@H](O)COc2cccc(C(F)(F)F)c2)[C@H](O)C[C@@H]1O` [travoprost] here?
Answer: moderately increases the natural pigmentation of the tail skin as early as day 36

Reference: US9364455B2, “Combination of a prostaglandin receptor agonist and an MC1R receptor agonist for the treatment and/or prevention of pigmentation disorders” (GALDERMA RESEARCH & DEVELOPMENT, priority 2011, dated 2016)
